Results: patent US9085603B2, “Progesterone receptor antagonists” (Bayer Intellectual Property GmbH, priority 2010, dated 2015)

Biological target: T1, human progesterone receptor A (Homo sapiens, UniProt P06401)
T1 construct: expressed in transfected cells; host or cells: SK-N-MC human neuroblastoma cells, stably transfected with pRChPR-A-neo and pMMTV-LUC
T1 sequence (P06401 1-769 isoform P06401-2): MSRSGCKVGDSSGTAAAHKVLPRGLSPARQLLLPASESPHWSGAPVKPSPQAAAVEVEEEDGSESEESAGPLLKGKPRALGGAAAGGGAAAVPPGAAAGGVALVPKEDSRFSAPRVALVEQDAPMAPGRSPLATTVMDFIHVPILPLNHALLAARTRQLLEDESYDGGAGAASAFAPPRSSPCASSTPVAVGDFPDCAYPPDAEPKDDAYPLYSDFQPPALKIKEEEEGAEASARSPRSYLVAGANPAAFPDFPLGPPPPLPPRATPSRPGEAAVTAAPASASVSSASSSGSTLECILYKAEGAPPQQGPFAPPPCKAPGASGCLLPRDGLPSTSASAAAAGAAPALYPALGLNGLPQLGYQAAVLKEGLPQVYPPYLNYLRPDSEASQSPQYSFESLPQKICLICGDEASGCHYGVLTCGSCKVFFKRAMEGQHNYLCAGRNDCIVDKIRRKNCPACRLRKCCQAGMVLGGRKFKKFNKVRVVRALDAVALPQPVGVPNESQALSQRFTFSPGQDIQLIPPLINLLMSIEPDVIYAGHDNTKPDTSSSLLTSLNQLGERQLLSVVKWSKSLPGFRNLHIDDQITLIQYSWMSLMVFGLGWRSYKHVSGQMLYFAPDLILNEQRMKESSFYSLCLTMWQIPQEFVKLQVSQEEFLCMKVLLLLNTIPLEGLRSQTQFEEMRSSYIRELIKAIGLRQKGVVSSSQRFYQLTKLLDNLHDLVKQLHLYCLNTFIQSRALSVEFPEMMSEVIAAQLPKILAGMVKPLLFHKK
Test: Progesterone receptor antagonistic effect in stably transfected SK-N-MC cells, MTV-LUC reporter (PR-A)
Type: cell-based
Details: antagonism of 0.1 nmol/l promegestone, luciferase reporter, 24 hours
Experimental: Progesterone Receptor Antagonistic Effect in Stable Transfectants of Human Neuroblastoma Cells (SK-N-MC cells) with the Human Progesterone A or Progesterone B Receptor and a MTV-LUC Reporter Construct
SK-N-MC cells (human neuroblastoma cells), which have been stably transfected with plasmids which express the human progesterone receptor B (pRChPR-B-neo) or the human progesterone receptor A (pRChPR-A-neo) and a reporter construct (pMMTV-LUC), were incubated for 24 hours either in the absence (negative control) or in the presence of increasing amounts of the particular test compound (0.01 nmol/l, 0.1 nmol/l, 1 nmol/l, 10 nmol/l, 100 nmol/l and 1 μmol/l) in order to determine the agonistic efficacy. As a positive control of the reporter gene induction, the cells were treated with the synthetic gestagen promegestone (0.01 nmol/l, 0.1 nmol/l, 1 nmol/l, 10 nmol/l, 100 nmol/l and 1 μmol/l). To determine the antagonistic activity, the cells were treated with 0.1 nmol/l of promegestone and additionally with increasing amounts of the particular test compound (0.01 nmol/l, 0.1 nmol/l, 1 nmol/l, 10 nmol/l, 100 nmol/l and 1 μmol/l). The activity of the reporter gene LUC (LUC=luciferase) was determined in the cell lysates and measured as RLU (relative light units). All measurement values are given as percentage efficacy and as EC50 or IC50 concentrations.

| IC50 [nM] | Compound |
| --- | --- |
| 0.51 | C[C@]12C[C@H](c3ccc(CNc4ccc(S(N)(=O)=O)cc4)cc3)C3=C4CCC(=O)C=C4CC[C@H]3[C@@H]1CC[C@@]2(O)C(F)(F)C(F)(F)F [Example 18, 4-({4-[(11β,17β)-17-Hydroxy-3-oxo-17-(pentafluoroethyl)estra-4,9-dien-11-yl]benzyl}amino)benzenesulphonamide] |
| 0.94 | C[C@]12C[C@H](c3ccc(CNc4cccnc4)cc3)C3=C4CCC(=O)C=C4CC[C@H]3[C@@H]1CC[C@@]2(O)C(F)(F)C(F)(F)F [Example 19, (11β,17β)-17-Hydroxy-17-(pentafluoroethyl)-11-{4-[(pyridin-3-ylamino)methyl]phenyl}estra-4,9-dien-3-one] |
| 6.06 | COc1ccccc1NCc1ccc([C@H]2C[C@@]3(C)[C@@H](CC[C@@]3(O)C(F)(F)C(F)(F)F)[C@@H]3CCC4=CC(=O)CCC4=C32)cc1 [Example 21, (11β,17β)-17-Hydroxy-11-(4-{[(2-methoxyphenyl)amino]methyl}phenyl)-17-(pentafluoroethyl)estra-4,9-dien-3-one] |
| 51 | CCN(CC)Cc1ccc([C@H]2C[C@@]3(C)C(CC[C@@]3(O)C(F)(F)C(F)(F)F)C3CCC4=CC(=O)CCC4=C32)cc1 (stereo partly drawn) [Example 24, (11β,17β)-11-{4-[(Diethylamino)methyl]phenyl}-17-hydroxy-17-(pentafluoroethyl)estra-4,9-dien-3-one] |
| 3.52 | CN(C)CCN(C)Cc1ccc([C@H]2C[C@@]3(C)C(CC[C@@]3(O)C(F)(F)C(F)(F)F)C3CCC4=CC(=O)CCC4=C32)cc1 (stereo partly drawn) [Example 27, (11β,17β)-11-[4-({[2-(Dimethylamino)ethyl](methyl)amino}methyl)phenyl]-17-hydroxy-17-(pentafluoroethyl)estra-4,9-dien-3-one] |
| 1.19 | COC(=O)c1ccc(NCc2ccc([C@H]3C[C@@]4(C)[C@@H](CC[C@@]4(O)C(F)(F)C(F)(F)F)[C@@H]4CCC5=CC(=O)CCC5=C43)cc2)cc1 [Example 29, Methyl 4-({4-[(11β,17β)-17-hydroxy-3-oxo-17-(pentafluoroethyl)estra-4,9-dien-11-yl]benzyl}amino)benzoate] |
| 5.55 | C[C@]12C[C@H](c3ccc(CN4CCN(CCc5ccccc5)CC4)cc3)C3=C4CCC(=O)C=C4CC[C@H]3[C@@H]1CC[C@@]2(O)C(F)(F)C(F)(F)F [Example 34, (11β,17β)-17-Hydroxy-17-(pentafluoroethyl)-11-(4-{[4-(2-phenylethyl)piperazin-1-yl]methyl}phenyl)estra-4,9-dien-3-one] |
| 2.33 | C[C@]12C[C@H](c3ccc(CN4CCN(Cc5ccncc5)CC4)cc3)C3=C4CCC(=O)C=C4CC[C@H]3[C@@H]1CC[C@@]2(O)C(F)(F)C(F)(F)F [Example 37, (11β,17β)-17-Hydroxy-17-(pentafluoroethyl)-11-(4-{[4-(pyridin-4-ylmethyl)piperazin-1-yl]methyl}phenyl)estra-4,9-dien-3-one] |
| 1.77 | COC(=O)c1cccc(NCc2ccc([C@H]3C[C@@]4(C)[C@@H](CC[C@@]4(O)C(F)(F)C(F)(F)F)[C@@H]4CCC5=CC(=O)CCC5=C43)cc2)c1 [Example 39, Methyl 3-({4-[(11β,17β)-17-hydroxy-3-oxo-17-(pentafluoroethyl)estra-4,9-dien-11-yl]benzyl}amino)benzoate] |

More lines, now with the values behind:

| Compound | IC50 [nM] |
| --- | --- |
| C[C@]12C[C@H](c3ccc(CNc4ccccc4)cc3)C3=C4CCC(=O)C=C4CCC3C1CC[C@@]2(O)C(F)(F)C(F)(F)F (stereo partly drawn) [Example 20, (11β,17β)-11-[4-(Anilinomethyl)phenyl]-17-hydroxy-17-(pentafluoroethyl)estra-4,9-dien-3-one] | 1.64 |
| COc1cccc(NCc2ccc([C@H]3C[C@@]4(C)[C@@H](CC[C@@]4(O)C(F)(F)C(F)(F)F)[C@@H]4CCC5=CC(=O)CCC5=C43)cc2)c1 [Example 22, (11β,17β)-17-Hydroxy-11-(4-{[(3-methoxyphenyl)amino]methyl}phenyl)-17-(pentafluoroethyl)estra-4,9-dien-3-one] | 2.52 |
| C[C@]12C[C@H](c3ccc(CNc4ccc(Cl)cc4)cc3)C3=C4CCC(=O)C=C4CCC3C1CC[C@@]2(O)C(F)(F)C(F)(F)F (stereo partly drawn) [Example 23, (11β,17β)-11-(4-{[(4-Chlorophenyl)amino]methyl}phenyl)-17-hydroxy-17-(pentafluoroethyl)estra-4,9-dien-3-one] | 2.07 |
| C[C@]12C[C@H](c3ccc(CN4CCN(c5ccccc5)CC4)cc3)C3=C4CCC(=O)C=C4CC[C@H]3[C@@H]1CC[C@@]2(O)C(F)(F)C(F)(F)F [Example 25, (11β,17β)-17-Hydroxy-17-(pentafluoroethyl)-11-{4-[(4-phenylpiperazin-1-yl)methyl]phenyl}estra-4,9-dien-3-one] | 3.06 |
| CN(Cc1ccncc1)Cc1ccc([C@H]2C[C@@]3(C)[C@@H](CC[C@@]3(O)C(F)(F)C(F)(F)F)[C@@H]3CCC4=CC(=O)CCC4=C32)cc1 [Example 26, (11β,17β)-17-Hydroxy-11-(4-{[methyl(pyridin-4-ylmethyl)amino]methyl}phenyl)-17-(pentafluoroethyl)estra-4,9-dien-3-one] | 4.65 |
| COC(=O)c1ccccc1NCc1ccc([C@H]2C[C@@]3(C)[C@@H](CC[C@@]3(O)C(F)(F)C(F)(F)F)[C@@H]3CCC4=CC(=O)CCC4=C32)cc1 [Example 28, Methyl 2-({4-[(11β,17β)-17-hydroxy-3-oxo-17-(pentafluoroethyl)estra-4,9-dien-11-yl]benzyl}amino)benzoate] | 5.05 |
| C[C@]12C[C@H](c3ccc(CN4CCc5ccccc5C4)cc3)C3=C4CCC(=O)C=C4CCC3C1CC[C@@]2(O)C(F)(F)C(F)(F)F (stereo partly drawn) [Example 30, (11β,17β)-11-[4-(3,4-Dihydroisoquinolin-2(1H)-ylmethyl)phenyl]-17-hydroxy-17-(pentafluoroethyl)estra-4,9-dien-3-one] | 2.35 |
| C[C@]12C[C@H](c3ccc(CN4CCN(Cc5ccccc5)CC4)cc3)C3=C4CCC(=O)C=C4CCC3C1CC[C@@]2(O)C(F)(F)C(F)(F)F (stereo partly drawn) [Example 31, (11β,17β)-11-{4-[(4-Benzylpiperazin-1-yl)methyl]phenyl}-17-hydroxy-17-(pentafluoroethyl)estra-4,9-dien-3-one] | 4.52 |
| C[C@]12C[C@H](c3ccc(CNc4ccc(C(N)=O)cc4)cc3)C3=C4CCC(=O)C=C4CC[C@H]3[C@@H]1CC[C@@]2(O)C(F)(F)C(F)(F)F [Example 32, 4-({4-[(11β,17β)-17-Hydroxy-3-oxo-17-(pentafluoroethyl)estra-4,9-dien-11-yl]benzyl}amino)benzamide] | 0.78 |
| CN(CCc1ccccc1)Cc1ccc([C@H]2C[C@@]3(C)[C@@H](CC[C@@]3(O)C(F)(F)C(F)(F)F)[C@@H]3CCC4=CC(=O)CCC4=C32)cc1 [Example 33, (11β,17β)-17-Hydroxy-11-(4-{[methyl(2-phenylethyl)amino]methyl}phenyl)-17-(pentafluoroethyl)estra-4,9-dien-3-one] | 5.57 |
| C[C@]12C[C@H](c3ccc(CN4CCN(c5cnccn5)CC4)cc3)C3=C4CCC(=O)C=C4CC[C@H]3[C@@H]1CC[C@@]2(O)C(F)(F)C(F)(F)F [Example 35, (11β,17β)-17-Hydroxy-17-(pentafluoroethyl)-11-(4-{[4-(pyrazin-2-yl)piperazin-1-yl]methyl}phenyl)estra-4,9-dien-3-one] | 0.68 |
| C[C@]12C[C@H](c3ccc(CN4CCN(CCN5CCCC5)CC4)cc3)C3=C4CCC(=O)C=C4CC[C@H]3[C@@H]1CC[C@@]2(O)C(F)(F)C(F)(F)F [Example 36, (11β,17β)-17-Hydroxy-17-(pentafluoroethyl)-11-[4-({4-[2-(pyrrolidin-1-yl)ethyl]piperazin-1-yl}methyl)phenyl]estra-4,9-dien-3-one] | 33.7 |
| CC(=O)Nc1ccc(NCc2ccc([C@H]3C[C@@]4(C)[C@@H](CC[C@@]4(O)C(F)(F)C(F)(F)F)[C@@H]4CCC5=CC(=O)CCC5=C43)cc2)cc1 [Example 38, N-[4-({4-[(11β,17β)-17-Hydroxy-3-oxo-17-(pentafluoroethyl)estra-4,9-dien-11-yl]benzyl}amino)phenyl]acetamide] | 0.66 |
